In assay [1] the test system is CD4+ T cells. As to the kind of experiment: T Cell in vitro Functional Assay (D): IL-22 production. The assay is classed as cell-based. To be noted: Mus musculus; CD4+ T cells cultured with IL-6/TGFβ, IL-23 stimulation 18 hours, ELISA. How it is done:
(§1) The in vitro assays to assess the effects of the compounds of Examples 16, 18 and 26 on T cells were conducted as described in assays A, B, C and D below. CD4+ T cells were isolated from red blood cell-depleted splenocytes of C57B1/6J mice (Jackson Laboratories, catalog #000664) using CD4+ T cell isolation kit (Miltenyi, catalog #130-090-860).
In assay (D), 1,000,000 cells/mL of purified CD4+ T cells were mixed with 1 μg/mL anti-CD28, 50 ng/mL IL-6 (R&D Systems cat #406-ML-025/CF), 1 ng/mL TGFβ (R&D Systems cat #303-B2-002), 2 μg/mL anti-IL-4 (R&D Systems cat #AB-404-NA), 2 μg/mL anti-IFNγ (R&D Systems cat #AB-485-NA) and placed into plates coated with 1 μg/mL anti-CD3. After 4 days, cells were harvested, washed and 100,000 cells were plated into 96 well plate. A dilution series of compounds were prepared at 200× the final concentration in DMSO, then 10× stocks were prepared by dilution in cell culture media. 10 μL of 10× stocks were added to the cells in the 96 well plate. After 2 hours, 50 ng IL-23 (R&D Systems catalog #1887-ML-010/CF) was added to each well and 18 hours later supernatants were removed and tested for IL-22 levels by ELISA (R&D Systems catalog #M2200). ELISA plates were quantified relative to a standard curve using Molecular Devices Versamax Reader at […] and Softmax Pro software.
(§2) For each of assays A, B, C and D, the values for each well were converted to a percent of vehicle-treated (DMSO) control (POC). These POC values were plotted as a function of compound concentration and an IC50 calculated using a 4-parameter curve-fit analysis program.

For assay [2], the system named is BaF3 TEL-JAK2 (Mouse pro-B-cell transformed with TEL-JAK2 fusion). Description: Cellular Proliferation Assay, cell line G. The assay is classed as cell-based. To be noted: BaF3 TEL-JAK2, 72 hours, CelltiterBlue, read-out: Cell Line G antiproliferative IC50. On the procedure:
(§3) The assay for determination of the antiproliferative activity of multiple Pim inhibitors in the JAK2-driven cell lines was conducted as follows. Cells were plated out to 96-well plates at an initial density of 10,000 cells/well in 95 pt. Compounds were prepared at […] in DMSO by conducting 3-fold serial dilutions to give a 10-point dosing curve having a high dose of 1000 μM. Aliquots (5 μt) of these dilutions were then transferred to the appropriate wells of the 96-well plates containing cells to yield a final DMSO concentration of 0.5%. The cells were then incubated with compound for 72 hours at 37° C., 5% CO2. CelltiterBlue reagent (Promega, Catalog #: G8080) was then added (20 μL/well) and incubated at 37° C., 5% CO2 for 1-8 hours depending on the cell line being analyzed. The plate was then quantified employing a fluorescence plate reader (Model: Gemini [Molecular Devices]; Settings: 560 nm (Ex)/590 nm (Em) 570 nm (cut-off) [CellTiter Blue Assay].
(§4) The values for each well were then converted to a percent of untreated control (POC). These POC values were then plotted as a function of compound concentration. A 4-parameter curve-fit analysis was performed for each compound dilution and an IC50 value was calculated from this curve.
(§5) Cell lines • A: PC3 (Androgen independent prostate cancer) • B: K562 (Ph+chronic myelogenous leukemia) • C: MV4-11 (Acute myelogenous leukemia) • D: BxPC3 (Pancreatic Cancer) • E: HepG2 (Hepatocellular Carcinoma) • F: BaF3 (Mouse pro-B-cell line) • G: BaF3 TEL-JAK2 (Mouse pro-B-cell transformed with TEL-JAK2 fusion) • H: BaF2 BCR-Ab1 (Mouse pro-B-cell transformed with BCR-Ab1 fusion)

Assay [3] deals with BaF3 (Mouse pro-B-cell line). Description: Cellular Proliferation Assay, cell line F. The assay is classed as cell-based. The conditions noted are these: BaF3, 72 hours, CelltiterBlue, read-out: Cell Line F antiproliferative IC50. How it is done:
as §3, §4, §5
(Alamar Blue is a resazurin reagent that responds to reducing activity.)

Assay [4] relates to K562 (Ph+chronic myelogenous leukemia). Description: Cellular Proliferation Assay, cell line B. The assay is classed as cell-based. The conditions noted are these: Homo sapiens; K562, 72 hours, CelltiterBlue; read-out: Cell Line B antiproliferative IC50. How it is done:
as §3, §4, §5

For the next assay, the target named is recombinant rat PIM-3 (Rattus norvegicus (Rat), UniProt O70444). Description: PIM-3 Enzyme Assay. To be noted: read-out: PIM-3 IC50; 30 μM ATP, 0.5 nM PIM-3.
Assay [5] relates to PC3 (Androgen independent prostate cancer). Description: Cellular Proliferation Assay, cell line A. The assay is classed as cell-based. To be noted: PC3, 72 hours, CelltiterBlue; read-out: Cell Line A antiproliferative IC50. How it is done:
as §3, §4, §5

Assay [6] deals with CD4+ T cells. As to the kind of experiment: T Cell in vitro Functional Assay (C): IL-4 production. The assay is classed as cell-based. To be noted: Mus musculus; CD4+ T cells cultured with IL-4/anti-IFNγ, anti-CD3 restimulation 18 hours, ELISA. On the procedure: as §1
In assay (C), 1000000 cells/mL of purified CD4+ T cells were mixed with 1 μg/mL anti-CD28, 10 ng/mL IL-4 (R&D Systems cat #404-ML-010/CF) and 2 μg/mL anti-IFNγ (R&D Systems cat #AB-485-NA) and placed into plates coated with 1 μg/mL anti-CD3. After 5 days, cells were harvested, washed and incubated overnight at 37° 5% CO2. The following day, 50,000 cells were plated into each well of a 96 well plate. A dilution series of compounds were prepared at 200× the final concentration in DMSO, then 10×stocks were prepared by dilution in cell culture media. 10 μL of 10× stocks were added to the cells in the 96 well plate and incubated for 2 hours at 37° C., 5% CO2. Cell/compound mixtures were then transferred to well coated with 0.1 μg anti-CD3 and incubated at 37° C., 5% CO2. Culture supernatants were removed 18 hours later and tested for IL-4 levels by ELISA (R&D Systems catalog #DY404). ELISA plates were quantified relative to a standard curve using Molecular Devices Versamax Reader at […] and Softmax Pro software.
as §2
On the technique in general: ELISA stands for enzyme-linked immunosorbent assay.

pIC50: −log10 of the molar value. Structures can show the parent of a compound that is named as a salt. A value given as a limit tells only on which side of the number the result lay.

One may read the pIC50 as the negative decadic logarithm of the IC50, by convention in mol/L.

Method for recombinant rat PIM-3: The amount of radiolabeled product is then measured by liquid scintillation counting. The final buffer conditions were as follows: 20 mM K^+MOPS, pH 7.4, 10 mM MgCl2, 0.005% Tween-20, 1 mM DTT. […] Incubations were carried out for 60 min at 22° C. and quenched with 75 μL of 200 mM H3PO4, filtered through a Whatman P81 plate and washed (1×200 μL and 5×100 μL ) with 200 mM H3PO4. Liquid scintillation cocktail (50 μL ) was then added per well, and the plate was counted for 30 s/well using a TopCount NXT.
One-μL aliquots of these were then transferred to the assay mixtures above to give a final concentration of DMSO of 2%. […] For each plate, percent of control (POC) values were calculated for each well. IC50's were estimated from the POC's using a standard 4-parameter logistic model. The IC50 is defined as the concentration of inhibitor at which the POC equals 50 for the fitted curve.

For `c1cc(OCC2CCCNC2)c2nc(-c3nnc4ccccn34)ccc2c1` (stereo not drawn) [Example 16, 2-([1,2,4]Triazolo[4,3-a]pyridin-3-yl)-8-(piperidin-3-ylmethoxy)quinoline], the pIC50 with CD4+ T cells [1] is at least 6.00; in assay [2] it was above 5.70; in assay [3], above 5.70; in assay [4], above 5.00; on recombinant rat PIM-3, 8.40; in assay [5] it was above 5.30. In the assay with CD4+ T cells [6], this molecule gave a pIC50 of at least 6.00.
As to `F[C@@H]1CNCCC1Oc1cccc2ccc(-c3nnc4ccccn34)nc12` (stereo in doubt) [Example 26, 2-([1,2,4]triazolo[4,3-a]pyridin-3-yl)-8-((cis)-3-fluoropiperidin-4-yloxy)quinoline dihydrochloride], the pIC50 was at least 5.30 in the assay with CD4+ T cells [1]; above 5.70 in assay [2]; above 5.70 in assay [3]; above 5.00 in assay [4]; 8.05 at recombinant rat PIM-3; above 5.30 in assay [5]. The molecule further showed a pIC50 with CD4+ T cells [6] of at least 5.30.
`CC(C)(CN)COc1cccc2ccc(-c3nnc4ccccn34)nc12` [Example 18, 3-(2-([1,2,4]Triazolo[4,3-a]pyridin-3-yl)quinolin-8-yloxy)-2,2-dimethylpropan-1-amine]: the pIC50 was at least 6.00 in the assay on CD4+ T cells [1]; above 5.70 in assay [2]; above 5.70 in assay [3]; above 5.30 in assay [4]; 8.70 at recombinant rat PIM-3; above 5.70 in assay [5]. This molecule had a pIC50 in the assay on CD4+ T cells [6] of at least 6.00.

The values are drawn from patent publication US8575145B2, “Triazolopyridine compounds as PIM kinase inhibitors” (Array BioPharma Inc., priority 2008, dated 2013).
